Measured values published in US20220289698A1, “INHIBITORS OF HUMAN ATGL” (Karl-Franzens-Universität Graz, priority 2019, published 2022).
Where two headings read alike, the source gives them in different places.

Tests used:
[1] = target: T1, murine ATGL (Mus musculus, UniProt Q8BJ56); assay: TG hydrolase activity, Expi lysates expressing mouse ATGL + CGI-58, radiolabelled triolein; format: biochemical
T1 construct: made in house; host or cells: Expi cells (lysate)
T1 sequence (Q8BJ56 1-486): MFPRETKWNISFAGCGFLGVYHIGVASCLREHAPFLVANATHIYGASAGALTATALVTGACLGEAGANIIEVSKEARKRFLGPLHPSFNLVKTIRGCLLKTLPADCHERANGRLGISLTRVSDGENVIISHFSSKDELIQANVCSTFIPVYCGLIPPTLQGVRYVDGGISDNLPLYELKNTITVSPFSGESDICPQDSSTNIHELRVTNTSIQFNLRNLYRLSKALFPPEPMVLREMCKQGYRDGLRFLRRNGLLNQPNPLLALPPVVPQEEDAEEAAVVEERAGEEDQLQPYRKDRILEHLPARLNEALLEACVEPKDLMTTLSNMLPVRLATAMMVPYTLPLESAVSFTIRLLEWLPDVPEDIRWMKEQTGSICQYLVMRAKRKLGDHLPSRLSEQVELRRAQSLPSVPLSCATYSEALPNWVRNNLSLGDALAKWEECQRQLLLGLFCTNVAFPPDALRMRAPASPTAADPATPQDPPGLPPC
In short: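 Lysates of Expi cells overexpressing mouse ATGL, with added recombinant CGI-58, were incubated with inhibitor at 50 μM. Substrate was emulsified radiolabelled triolein with PC/PI in 100 mM potassium phosphate pH 7.0 and 5% FA-free BSA, 1 h at 37° C. Released FA were extracted and counted by scintillation; triplicates, DMSO control.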

[2] = target: T2, hHSL (Homo sapiens, UniProt Q05469); assay: hHSL off-target inhibition; format: biochemical; settings: read-out: hHSL off-target inhibition [% inhibition at 100 μM]
T2 construct: made in house; host or cells: Expi cells (lysate)
T2 sequence (Q05469 1-1076): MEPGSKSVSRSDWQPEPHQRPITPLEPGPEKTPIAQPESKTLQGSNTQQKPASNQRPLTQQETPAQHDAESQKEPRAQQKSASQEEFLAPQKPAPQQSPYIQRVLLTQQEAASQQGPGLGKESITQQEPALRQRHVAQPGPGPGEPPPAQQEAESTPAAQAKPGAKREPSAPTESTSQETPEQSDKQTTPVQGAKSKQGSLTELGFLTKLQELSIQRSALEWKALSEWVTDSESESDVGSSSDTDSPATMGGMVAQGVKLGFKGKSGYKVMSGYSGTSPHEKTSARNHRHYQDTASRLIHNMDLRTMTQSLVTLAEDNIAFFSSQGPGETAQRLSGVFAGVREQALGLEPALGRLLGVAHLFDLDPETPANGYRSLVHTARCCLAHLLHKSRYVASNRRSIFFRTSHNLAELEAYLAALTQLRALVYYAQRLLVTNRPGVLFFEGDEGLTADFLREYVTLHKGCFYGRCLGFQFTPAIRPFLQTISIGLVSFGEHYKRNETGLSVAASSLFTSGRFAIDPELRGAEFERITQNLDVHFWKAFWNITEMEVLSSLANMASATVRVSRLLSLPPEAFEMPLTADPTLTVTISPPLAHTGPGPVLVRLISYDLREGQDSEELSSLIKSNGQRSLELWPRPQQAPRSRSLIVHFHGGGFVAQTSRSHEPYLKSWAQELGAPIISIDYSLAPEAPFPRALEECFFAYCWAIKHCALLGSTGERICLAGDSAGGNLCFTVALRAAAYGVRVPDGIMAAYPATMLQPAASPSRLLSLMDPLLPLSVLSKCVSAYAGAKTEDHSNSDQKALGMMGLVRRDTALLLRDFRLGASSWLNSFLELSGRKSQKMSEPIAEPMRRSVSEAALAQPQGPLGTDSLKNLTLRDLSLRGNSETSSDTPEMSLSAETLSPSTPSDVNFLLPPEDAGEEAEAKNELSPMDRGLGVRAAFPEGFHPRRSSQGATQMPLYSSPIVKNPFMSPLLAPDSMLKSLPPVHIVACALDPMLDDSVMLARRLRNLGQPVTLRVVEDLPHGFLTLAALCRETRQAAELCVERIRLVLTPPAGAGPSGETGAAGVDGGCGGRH
Experimental: Expi lysates expressing hHSL were preincubated with 100 μM Inhibitors for 30 min and incubated with 1 mM pNV substrate for 30 min. Samples measured in triplicates.

[3] = 50 μM compound, Example 237, read-out: Inhibition of murine ATGL at 50 μM − mean [%]
[4] = 50 μM, Example 238, read-out: % Inhibition of murine ATGL at 50 μM
[5] = 50 μM, overview table, read-out: mouse ATGL inhibition [% inhibition at 50 μM]

**Q.** How did the inhibition at 50 µM [1, 3] turn out when CCOc1ccc(-c2nc(C(=O)OCc3cccs3)cs2)cc1 [Example 152, Thiophen-2-ylmethyl 2-(4-ethoxyphenyl)thiazole-4-carboxylate] was run?
**A.** 74%

**Q.** And the inhibition at 100 µM [2]?
**A.** 25%

**Q.** Which inhibition at 25 µM ([1]; Example 238) does the source give for CCOc1ccc(-c2nc(C(=O)OCc3ccsc3)cs2)cc1 [Example 215, Thiophen-3-ylmethyl 2-(4-ethoxyphenyl)thiazole-4-carboxylate] here?
**A.** 71%

**Q.** What about the inhibition at 50 µM [1, 4] of the same molecule?
**A.** 81%

**Q.** What about the inhibition at 50 µM [1, 5] of the same molecule?
**A.** 60%

**Q.** What about the inhibition at 100 µM [2] of the same molecule?
**A.** 30%

**Q.** Which inhibition at 25 µM ([1]; Example 238) does the source give for CCCCOC(=O)c1csc(-c2ccc(OCC)cc2)n1 [Example 212, Butyl 2-(4-ethoxyphenyl)thiazole-4-carboxylate] here?
**A.** 47%

**Q.** What about the inhibition at 50 µM [1, 4] of the same molecule?
**A.** 56%

**Q.** What about the inhibition at 100 µM [2] of the same molecule?
**A.** 0%

**Q.** For CCOc1ccc(-c2nc(C(=O)OCc3ccc(Br)s3)cs2)cc1 [Example 224, (5-Bromothiophen-2-yl)methyl 2-(4-ethoxyphenyl)thiazole-4-carboxylate], which inhibition at 50 µM [1, 4] is on record?
**A.** 68%

**Q.** And the inhibition at 100 µM [2]?
**A.** 95%

**Q.** CCOc1ccc(-c2cccc(C(=O)OCc3ccco3)n2)cc1 [Example 190, Furan-2-ylmethyl 6-(4-ethoxyphenyl)picolinate] was tested. Which inhibition at 50 µM [1, 4] did it give?
**A.** 80%

**Q.** What about the inhibition at 100 µM [2] of the same molecule?
**A.** 0%

**Q.** Which inhibition at 50 µM [1, 4] does the source give for CC#CCOC(=O)c1csc(-c2ccc(OCC)cc2)n1 [Example 209, But-2-yn-1-yl 2-(4-ethoxyphenyl)thiazole-4-carboxylate] here?
**A.** 76%

**Q.** And the inhibition at 100 µM [2]?
**A.** 40%

**Q.** Which results are given for CCOc1ccc(-c2nc(C(=O)OCc3ccoc3)cs2)cc1 [Example 216, Furan-3-ylmethyl 2-(4-ethoxyphenyl)thiazole-4-carboxylate]?
**A.** inhibition at 25 µM ([1]; Example 238): 70%; inhibition at 50 µM [1, 4]: 81%; inhibition at 100 µM [2]: 30%

**Q.** Which results are given for C#C[C@@H](C)OC(=O)c1csc(-c2ccc(OCC)cc2)n1 [Example 211, (R)-But-3-yn-2-yl 2-(4-ethoxyphenyl)thiazole-4-carboxylate]?
**A.** inhibition at 25 µM ([1]; Example 238): 73%; inhibition at 50 µM [1, 4]: 82%; inhibition at 50 µM [1, 5]: 60%; inhibition at 100 µM [2]: 40%

**Q.** How did the inhibition at 50 µM [1, 4] turn out when CCOc1ccc(-c2nc(C(=O)OCc3ccc(Cl)s3)cs2)cc1 [Example 223, (5-Chlorothiophen-2-yl)methyl 2-(4-ethoxyphenyl)thiazole-4-carboxylate] was run?
**A.** 71%

**Q.** What about the inhibition at 100 µM [2] of the same molecule?
**A.** 40%

**Q.** What does the source list for COc1cc(C(=O)OC(C)C)nc(-c2ccc(OC(C)C)cc2)c1 [Example 201, Isopropyl 6-(4-isopropoxyphenyl)-4-methoxypicolinate]?
**A.** inhibition at 50 µM [1, 4]: 45%; inhibition at 50 µM [1, 5]: 0%; inhibition at 100 µM [2]: 0%

**Q.** C#C[C@H](C)OC(=O)c1csc(-c2ccc(OCC)cc2)n1 [Example 210, (S)-But-3-yn-2-yl 2-(4-ethoxyphenyl)thiazole-4-carboxylate] was tested. Which inhibition at 25 µM ([1]; Example 238) did it give?
**A.** 47%

**Q.** What about the inhibition at 50 µM [1, 4] of the same molecule?
**A.** 60%

**Q.** What about the inhibition at 100 µM [2] of the same molecule?
**A.** 0%

**Q.** Which inhibition at 50 µM [1, 3] does the source give for CCOc1ccc(-c2cc(OC)cc(C(=O)OC(C)C)n2)cc1 [Example 35] here?
**A.** 0%

**Q.** What about the inhibition at 100 µM [2] of the same molecule?
**A.** 0%

**Q.** Which inhibition at 50 µM [1, 4] does the source give for CCOc1ccc(-c2cccc(C(=O)OCc3cccs3)n2)cc1 [Example 189, Thiophen-2-ylmethyl 6-(4-ethoxyphenyl)picolinate] here?
**A.** 87%

**Q.** And the inhibition at 100 µM [2]?
**A.** 0%
